Assay results published in ChEMBL document CHEMBL1201862, “PubChem BioAssay data set” (2004).
Activity calls are given as the source filed them.

Key:
[1] = target: G-protein coupled receptor 183 (Homo sapiens, UniProt P32249); test: SAR confirmation of small molecule antagonists of the EBI2 receptor via a luminescent beta-arrestin assa.; type: functional
[2] = inhibition of fibronectin matrix deposition – AH1F cells, Alexa488-fibronectin fluorescence, cherry-pick, set 2, dose response (AID 1117283); type: functional, cell-based
Protein Tat = Protein Tat (Human immunodeficiency virus type 1 group M subtype B (isolate HXB2)(HIV-1), UniProt P04608); type: functional;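 also: tat binding to TAR RNA read out by fluorescence polarization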
Sequence of Protein Tat (P04608 whole entry): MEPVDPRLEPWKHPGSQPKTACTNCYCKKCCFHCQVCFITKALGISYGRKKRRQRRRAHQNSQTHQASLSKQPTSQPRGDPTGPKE

Estrogen receptor = target: T1, Estrogen receptor (Homo sapiens, UniProt P03372);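 also: potency for inhibiting coactivator peptide recruitment to the receptor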
T1 sequence (P03372 whole entry): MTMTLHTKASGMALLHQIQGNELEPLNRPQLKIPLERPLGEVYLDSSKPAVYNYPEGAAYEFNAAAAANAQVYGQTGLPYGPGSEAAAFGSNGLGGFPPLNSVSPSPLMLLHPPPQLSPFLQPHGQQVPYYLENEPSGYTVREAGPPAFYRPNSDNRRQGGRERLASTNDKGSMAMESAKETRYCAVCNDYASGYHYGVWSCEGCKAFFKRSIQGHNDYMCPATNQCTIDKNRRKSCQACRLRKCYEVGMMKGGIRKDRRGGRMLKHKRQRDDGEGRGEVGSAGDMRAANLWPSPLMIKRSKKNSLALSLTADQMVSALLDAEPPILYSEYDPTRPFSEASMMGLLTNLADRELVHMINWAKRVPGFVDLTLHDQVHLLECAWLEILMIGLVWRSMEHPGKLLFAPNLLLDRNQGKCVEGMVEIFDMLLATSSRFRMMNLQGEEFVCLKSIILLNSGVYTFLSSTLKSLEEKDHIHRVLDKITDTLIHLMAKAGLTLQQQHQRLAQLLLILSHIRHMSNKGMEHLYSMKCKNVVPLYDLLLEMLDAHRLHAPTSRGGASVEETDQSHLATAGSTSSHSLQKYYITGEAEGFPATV

[3] = glucagon-like peptide-1 release potency in STC-1, concentration-response, half-maximal inhibitory concentration in the STC-1 line (AID 1117345); type: functional, cell-based
[4] = IC50 of insulin release inhibition, rat insulinoma INS-1E line, 5 mM glucose, cell-based (AID 1117331); type: functional
[5] = Potency on glucagon-like peptide 1 release, dose-response in NCI-H716 cell line, half maximal inhibitory concentration (AID 1117344); type: functional, cell-based
[6] = target: T2, Apoptotic protease-activating factor 1 (Homo sapiens, UniProt O14727); type: functional
T2 sequence (O14727 whole entry): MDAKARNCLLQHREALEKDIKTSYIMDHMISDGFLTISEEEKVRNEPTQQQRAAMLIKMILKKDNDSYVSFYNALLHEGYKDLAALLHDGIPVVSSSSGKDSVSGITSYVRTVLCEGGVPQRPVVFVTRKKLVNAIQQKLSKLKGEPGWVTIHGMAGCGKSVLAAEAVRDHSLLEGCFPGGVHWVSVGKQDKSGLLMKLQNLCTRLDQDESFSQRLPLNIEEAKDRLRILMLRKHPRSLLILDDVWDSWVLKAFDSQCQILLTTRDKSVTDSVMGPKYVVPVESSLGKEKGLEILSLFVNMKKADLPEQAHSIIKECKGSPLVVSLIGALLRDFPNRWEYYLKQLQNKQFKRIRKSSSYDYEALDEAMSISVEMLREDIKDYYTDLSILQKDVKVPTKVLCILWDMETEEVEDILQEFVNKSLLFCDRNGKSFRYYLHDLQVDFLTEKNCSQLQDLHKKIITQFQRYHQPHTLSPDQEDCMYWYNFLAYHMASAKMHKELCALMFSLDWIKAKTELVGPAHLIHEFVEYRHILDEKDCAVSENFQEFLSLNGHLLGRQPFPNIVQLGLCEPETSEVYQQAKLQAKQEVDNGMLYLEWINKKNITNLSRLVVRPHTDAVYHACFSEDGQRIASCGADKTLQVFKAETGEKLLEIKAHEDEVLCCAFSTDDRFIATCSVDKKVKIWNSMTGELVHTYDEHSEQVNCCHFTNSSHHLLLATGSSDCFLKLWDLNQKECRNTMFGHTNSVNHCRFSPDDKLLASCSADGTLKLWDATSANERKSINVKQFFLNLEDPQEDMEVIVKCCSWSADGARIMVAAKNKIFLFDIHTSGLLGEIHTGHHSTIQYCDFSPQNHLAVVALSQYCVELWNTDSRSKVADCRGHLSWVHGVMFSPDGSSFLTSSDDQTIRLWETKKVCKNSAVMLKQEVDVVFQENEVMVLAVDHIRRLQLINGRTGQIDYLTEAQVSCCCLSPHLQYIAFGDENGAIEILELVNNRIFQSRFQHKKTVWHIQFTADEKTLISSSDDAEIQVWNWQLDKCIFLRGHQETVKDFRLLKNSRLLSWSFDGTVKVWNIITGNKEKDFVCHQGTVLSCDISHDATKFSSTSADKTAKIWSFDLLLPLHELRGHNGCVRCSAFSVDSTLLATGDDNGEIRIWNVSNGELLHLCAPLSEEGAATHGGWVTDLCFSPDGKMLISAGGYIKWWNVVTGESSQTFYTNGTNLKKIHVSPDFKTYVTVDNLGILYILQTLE

[7] = NIH3T3 cell viability loss – ATP luminescence, mouse fibroblasts, counter-screen, dose response (AID 2010); type: functional, cell-based;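 also: cells exposed to compound for about 90 hours before reading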
[8] = IC50 of Artemis nuclease activity blockers – biochemical, fluorescence intensity, dose response (AID 720701); type: functional;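 also: Artemis endonuclease enzyme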
[9] = alpha-synuclein stem-loop luciferase translation blockers – H4 neuroglioma cells, luminescence, confirmation (AID 1988); type: functional, cell-based
Protein RecA = target: T3, Protein RecA (Mycobacterium tuberculosis, UniProt P9WHJ3); test: Fluorescence Cell-Free Homogeneous Dose Retest to Identify Inhibitors of RecA-Intein Splicing Activity. [Related pubchem assays (depositor defined):AID2097, AID2223, AID489010, AID492950]; type: functional
T3 sequence (P9WHJ3 whole entry): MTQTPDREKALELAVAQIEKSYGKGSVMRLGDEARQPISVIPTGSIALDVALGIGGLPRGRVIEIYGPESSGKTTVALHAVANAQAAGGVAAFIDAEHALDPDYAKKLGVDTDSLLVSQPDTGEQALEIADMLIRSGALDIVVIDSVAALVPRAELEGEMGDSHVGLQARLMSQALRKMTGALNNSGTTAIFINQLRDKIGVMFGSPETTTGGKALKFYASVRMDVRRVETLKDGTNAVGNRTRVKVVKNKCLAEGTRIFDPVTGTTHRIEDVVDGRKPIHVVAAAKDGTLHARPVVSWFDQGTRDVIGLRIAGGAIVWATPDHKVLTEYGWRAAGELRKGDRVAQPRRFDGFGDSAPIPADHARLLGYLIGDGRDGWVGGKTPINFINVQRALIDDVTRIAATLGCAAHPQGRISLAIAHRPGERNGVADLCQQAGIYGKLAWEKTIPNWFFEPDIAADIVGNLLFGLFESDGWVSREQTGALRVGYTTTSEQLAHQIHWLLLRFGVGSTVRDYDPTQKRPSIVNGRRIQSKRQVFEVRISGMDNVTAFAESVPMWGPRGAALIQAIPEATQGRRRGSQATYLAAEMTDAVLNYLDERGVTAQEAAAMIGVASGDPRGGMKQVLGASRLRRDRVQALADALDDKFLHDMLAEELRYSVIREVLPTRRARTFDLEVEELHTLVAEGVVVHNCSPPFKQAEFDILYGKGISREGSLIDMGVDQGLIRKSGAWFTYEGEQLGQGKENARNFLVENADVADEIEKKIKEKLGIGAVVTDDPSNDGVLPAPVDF

[10] = Luminescence Cell-Based Dose Response HTS to Identify Inhibitors of 5'UTR Stem-Loop Driven Prion Protein mRNA Translation in H4 Neuroglioblastoma Cells. [Related pubchem assays: 1827 (Project Summary), 1813 (Primary HTS)]; type: functional
Streptococcus = test: GAS UMAA2166 growth inhibition – luminescence, BacTiterGlo, counter-screen for streptokinase expression inhibitor project, dose response (AID 1915); type: functional, organism-based;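 also: potency for reduction of bacterial viability or growth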
[11] = target: T4, Replicative DNA helicase DnaB (Mycobacterium tuberculosis, UniProt P9WMR3); test: DnaB intein splicing inhibitors, dose response, biochemical, cell-free fluorescence (AID 449749); type: functional
T4 sequence (P9WMR3 whole entry): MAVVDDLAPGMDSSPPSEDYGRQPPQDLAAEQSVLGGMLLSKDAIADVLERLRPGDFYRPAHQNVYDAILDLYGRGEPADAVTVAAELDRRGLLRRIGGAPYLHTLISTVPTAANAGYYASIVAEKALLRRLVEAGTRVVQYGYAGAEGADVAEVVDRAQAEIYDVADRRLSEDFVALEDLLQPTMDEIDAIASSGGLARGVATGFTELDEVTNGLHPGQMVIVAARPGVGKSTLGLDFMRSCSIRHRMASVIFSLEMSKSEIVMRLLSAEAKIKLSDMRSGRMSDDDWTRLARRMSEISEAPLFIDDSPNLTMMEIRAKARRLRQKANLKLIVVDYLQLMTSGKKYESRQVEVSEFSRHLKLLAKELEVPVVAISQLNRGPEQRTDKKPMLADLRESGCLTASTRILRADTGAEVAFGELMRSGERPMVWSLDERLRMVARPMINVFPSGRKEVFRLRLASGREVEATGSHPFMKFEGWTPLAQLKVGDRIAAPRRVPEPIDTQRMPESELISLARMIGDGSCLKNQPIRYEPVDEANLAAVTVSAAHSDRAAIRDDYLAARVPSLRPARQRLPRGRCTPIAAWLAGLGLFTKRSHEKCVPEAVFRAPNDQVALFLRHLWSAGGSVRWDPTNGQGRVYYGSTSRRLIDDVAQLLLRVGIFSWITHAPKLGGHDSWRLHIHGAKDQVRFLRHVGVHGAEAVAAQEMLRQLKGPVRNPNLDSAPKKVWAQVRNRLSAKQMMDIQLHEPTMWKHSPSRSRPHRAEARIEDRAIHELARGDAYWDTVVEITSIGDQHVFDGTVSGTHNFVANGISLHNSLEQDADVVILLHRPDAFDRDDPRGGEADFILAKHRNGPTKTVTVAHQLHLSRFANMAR

[12] = system: Streptococcus sp. 'group A'; test: Streptococcus pyogenes SK(-)GAS viability under kanamycin – luminescence, BacTiterGlo, confirmation, counter-screen for streptokinase expression inhibitor project, dose response (AID 1900); type: functional, organism-based
[13] = luciferase reporter signal suppression in cells – H4 neuroglioma cells, luminescence, dose response (AID 1990); type: functional, cell-based
[14] = Trypanosoma cruzi growth suppression in host cells – NIH3T3 host cells, beta-gal luminescence, confirmation (AID 2044); type: functional, cell-based;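 also: intracellular parasites grown in NIH/3T3 mouse fibroblasts as host cells; luminescent beta-galactosidase reporter signal from transgenic T. cruzi replicating inside host cells; inhibitors lower the luminescence signal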

Sequence of G-protein coupled receptor 183 (P32249 whole entry): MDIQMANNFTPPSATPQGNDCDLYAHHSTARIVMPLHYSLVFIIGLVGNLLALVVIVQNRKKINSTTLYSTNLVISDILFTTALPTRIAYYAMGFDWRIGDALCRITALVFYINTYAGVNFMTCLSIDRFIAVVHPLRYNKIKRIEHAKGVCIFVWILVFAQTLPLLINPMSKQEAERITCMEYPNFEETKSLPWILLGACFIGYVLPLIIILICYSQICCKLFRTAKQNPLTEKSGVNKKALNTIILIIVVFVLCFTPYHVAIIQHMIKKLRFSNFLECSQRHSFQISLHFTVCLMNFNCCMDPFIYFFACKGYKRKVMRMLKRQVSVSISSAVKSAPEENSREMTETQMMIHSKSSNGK

## CCC(C)N1CCN(C(=O)/C=C/c2ccc(Br)cc2)CC1 (centres undefined)
[1]
  IC50: 0.00223 µM (active)

## C[C@H](O)C#Cc1ccc2c(c1)O[C@H](CN(C)C)[C@@H](C)CN([C@@H](C)CO)S2(=O)=O
[2]
  AC50: > 70 µM (inactive)

## C[C@@H]1CN([C@H](C)CO)C(=O)c2cc(-c3ccccc3)cnc2O[C@@H]1CN(C)C(=O)c1cccc(F)c1
[2]
  AC50: > 70 µM (inactive)

## CC(=O)c1cccc(NC(=O)CN2C(=O)NC3(CCCCCCC3)C2=O)c1
Protein Tat
  IC50: > 100 µM (active)
Estrogen receptor
  IC50: 48.2 µM (not active)

## Cc1cc(O)c2c(O)c3c(O)cccc3cc2c1
[3]
  IC50: 11.3 µM (inactive)
[4]
  IC50: > 33.3 µM (inactive)
[5]
  IC50: > 20 µM (inactive)

## O=C1c2ccccc2C(=O)c2c1oc(C(F)(F)F)c2C(=O)c1ccccc1
[6]
  IC50: 4.72 µM (active)
[7]
  EC50: > 60 µM (not active)
[8]
  IC50: > 20 µM (inactive)
[9]
  EC50: 3.37 µM (active)
Protein RecA
  EC50: 15.3 µM (active)
[10]
  EC50: 7.26 µM (active)
Streptococcus
  EC50: 2.41 µM (active)
[11]
  AC50: > 380 µM (inconclusive)
[12]
  EC50: 2.11 µM (active)
[13]
  EC50: 6.73 µM (active)
[14]
  EC50: 1.76 µM (active)
